One test addresses FRTL5 cells (Rattus norvegicus, UniProt P21463). Put plainly: TSab bioassay, inhibition of TSab-stimulated cAMP generation in FRTL5 cells. In kind it is cell-based. As to conditions: for Serum samples in which TSab-stimulated cAMP was significantly inhibited (p<0.05) / samples tested: peptide 150 μg/ml; for Inhibition of TSab-stimulated cAMP generation (in words): peptide 50 and 150 μg/ml. Here is the method: FRTL5 cells were cultured in Hams F-12 medium supplemented with 5% calf serum and a preparation containing 6 hormones (6H), including 10 mU/ml bTSH (Sigma, St. Louis, Mo.), as previously described. Ambesi-Impiombato et al., Proc. Natl. Acad. Sci. U.S.A., 77:3455 (1980), the disclosure of which is incorporated by reference herein. The cells were enzymatically removed from flasks and plated in 24 well plates containing 6H at a density of 150,000 cells per well. After 4 days, the cells were washed and the media replaced with media containing insulin only (1H). All subsequent assays were performed on cells deprived of TSH for 5-7 days.
Serum samples from 15 patients with elevated TSab levels were selected from the clinical chemistry laboratory. The TSab values, expressed as an index, [formula] 63:707 (1988)]ranged from 10-20 with an average of 13.8±3.3. Normal serum has an index of less than 1.3.
The bioassay described by Kasagi et al., supra, with modifications as previously noted above, was used. The immunoglobulins were precipitated from 2 ml of TSab-containing serum with 6 ml of polyethylene glycol 6,000 (Baker; Phillipsburg, N.J.), centrifuged at 3,000×g for 20 minutes, and resuspended in 4 ml of NaCl-free HBSS with 0.5 mM IBMX and 0.5% BSA. The plated cells were washed with NaCl-free HBSS and the crude immunoglobulin extract, mixed with various concentrations of β-subunit peptides, was added in duplicate to the wells (total volume 200 μl/well). The cells were incubated for 2 hours at 37° C. and 5% CO2. The samples were then removed from the cells and a portion diluted 1:50 in NaOAc buffer, pH 6.2. A 25 μl aliquot of this was then used in a cAMP RIA as described above. The basal cAMP levels were determined for each plate of cells in the absence of immunoglobulin extract and β-peptides. A maximal cAMP level was attained by stimulating the cells with the immunoglobulin extract only. The percent increase in cAMP levels above basal was calculated as: [formula] as previously described (see Morris et al., supra). The percent inhibition of cAMP production by the β-subunit peptides was calculated as described above for TSH-stimulated cells, substituting pmol cAMP crude immunoglobulin for pmol cAMP TSH.
Inhibition of TSab activity was tested by comparing the replicates of cAMP levels generated in the presence of peptide to those generated by TSab alone using Student's T test for unpaired samples. Mean inhibition by the various doses of synthetic peptide for the patient group was tested by comparison with maximum cAMP response within each patient sample using the T test for paired samples.

For test [1], the target named is T1, TSH receptor on human thyroid membranes (Homo sapiens, UniProt P16473).
T1 construct: Crude membrane preparations were prepared from the frozen tissue; from tissue; host or cells: human thyroid tissue (Graves' disease patients), crude 2000 x g membrane fraction
T1 sequence (P16473 21-764): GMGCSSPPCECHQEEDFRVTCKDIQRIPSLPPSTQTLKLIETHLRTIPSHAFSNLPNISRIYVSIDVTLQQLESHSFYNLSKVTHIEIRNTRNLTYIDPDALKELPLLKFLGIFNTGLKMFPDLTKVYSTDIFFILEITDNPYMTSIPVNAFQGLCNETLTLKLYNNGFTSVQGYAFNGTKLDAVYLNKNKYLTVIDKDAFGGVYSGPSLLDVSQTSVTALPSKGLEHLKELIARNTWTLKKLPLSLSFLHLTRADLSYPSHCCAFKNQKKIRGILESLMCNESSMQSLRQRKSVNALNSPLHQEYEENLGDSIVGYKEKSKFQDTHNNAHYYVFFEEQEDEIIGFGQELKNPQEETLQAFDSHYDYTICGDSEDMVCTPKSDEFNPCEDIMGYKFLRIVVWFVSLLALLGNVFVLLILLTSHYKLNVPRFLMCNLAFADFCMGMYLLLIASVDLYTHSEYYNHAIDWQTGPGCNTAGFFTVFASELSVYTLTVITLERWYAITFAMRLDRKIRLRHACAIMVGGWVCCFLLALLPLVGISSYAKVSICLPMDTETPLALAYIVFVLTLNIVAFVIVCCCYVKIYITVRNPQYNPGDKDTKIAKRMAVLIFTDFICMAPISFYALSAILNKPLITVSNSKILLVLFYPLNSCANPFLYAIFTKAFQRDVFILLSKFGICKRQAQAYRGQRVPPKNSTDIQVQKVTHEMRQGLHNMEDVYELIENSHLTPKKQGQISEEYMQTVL
Put plainly: Human thyroid membrane TSH radio-receptor assay (inhibition of 125I-bTSH binding). As to conditions: for EC50: concentration inhibiting 125I-bTSH binding to human thyroid membrane by 50%, mean ± se of at least 3 assays. Here is the method: Thyroid tissue from patients with Graves' disease was obtained at surgery and promptly frozen and maintained at -70° C. Crude membrane preparations were prepared from the frozen tissue as previously described, Takahashi et al., J. Clin. Endocrinol. Metab., 47:870-876 (1978), the disclosure of which is incorporated by reference herein. Briefly, the tissue was homogenized with a Polytron homogenizer (Brinkmann Instruments,Westbury, N.Y.), and the 2000×g fraction was collected by centrifugation, washed, and resuspended in 40 mM Tris, 200 mM sucrose, pH 7.4. Membrane preparations were maintained at -70° C. until assay.
(§1) Highly purified bTSH (30 U/mg, supplied by Dr. J. G. Pierce, formerly of UCLA) was radio-iodinated (Na^125 I, Amersham, Chicago) by a lactoperoxidase technique to a specific activity averaging 40-50 μCi/μg as previously described, Takahashi et al., supra, then purified by Sephadex G-100 chromatography.
(§2) The TSH radio-receptor assay (RRA) utilized for the studies has been well described previously; see Takahashi et al., supra and Morris et al., Endocrinology, 123:456-462 (1988), the disclosure of which is incorporated by reference herein. Briefly, for either human or porcine thyroid RRA, the incubation mixture consisted of the following: 10 mg equivalents of wet weight (mg eq) crude thyroid membrane preparation, 0.124 ng [^125 I]iodo-bTSH (approximately 20,000 cpm), 0.2% Triton X-100, and the noted amounts of synthetic peptides or unlabeled bTSH in 0.5 ml 40 mM Tris, 0.1% BSA, pH 7.4. Bound label was separated from free after 2 hrs incubation at 25° C. by addition of a 1 ml 30% polyethylene glycol (PEG, Baker, Phillipsburg, N.J.) 6000 in 1M NaCl and centrifugation. The resulting pellet was counted in a gamma counter. Non-specific binding was determined by addition of a 100 mU/ml crude bTSH (Sigma, St. Louis).

In test [2] the target is T2, porcine TSH receptor (porcine thyroid membranes) (Sus scrofa, UniProt Q8SPP9).
T2 construct: Frozen porcine thyroid glands were purchased; tissue Pel-Freez Biologicals; host or cells: porcine thyroid glands, crude membrane preparation
T2 sequence (Q8SPP9 22-764): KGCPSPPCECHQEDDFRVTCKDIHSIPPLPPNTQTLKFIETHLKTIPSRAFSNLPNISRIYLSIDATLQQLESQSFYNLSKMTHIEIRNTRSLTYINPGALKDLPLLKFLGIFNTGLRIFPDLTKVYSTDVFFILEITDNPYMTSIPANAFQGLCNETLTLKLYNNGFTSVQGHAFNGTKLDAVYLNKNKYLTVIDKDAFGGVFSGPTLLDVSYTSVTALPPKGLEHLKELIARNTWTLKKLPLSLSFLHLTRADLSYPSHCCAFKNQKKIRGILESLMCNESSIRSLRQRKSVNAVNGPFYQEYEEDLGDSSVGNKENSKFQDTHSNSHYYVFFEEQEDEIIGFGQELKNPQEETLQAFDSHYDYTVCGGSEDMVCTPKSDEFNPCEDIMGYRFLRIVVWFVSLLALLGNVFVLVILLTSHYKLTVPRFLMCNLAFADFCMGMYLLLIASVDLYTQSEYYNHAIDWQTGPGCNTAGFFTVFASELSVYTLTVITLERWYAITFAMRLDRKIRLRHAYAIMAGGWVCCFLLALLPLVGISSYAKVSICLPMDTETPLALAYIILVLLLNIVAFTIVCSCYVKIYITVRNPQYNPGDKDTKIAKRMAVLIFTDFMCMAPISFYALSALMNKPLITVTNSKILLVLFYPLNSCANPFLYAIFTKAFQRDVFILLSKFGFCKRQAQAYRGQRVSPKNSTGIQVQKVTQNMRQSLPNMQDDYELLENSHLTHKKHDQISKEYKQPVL
Put plainly: Porcine thyroid membrane TSH radio-receptor assay (inhibition of 125I-bTSH binding). As to conditions: concentration inhibiting 125I-bTSH binding to porcine thyroid membrane by 50%; mean ± se of at least 3 assays.
Description: Frozen porcine thyroid glands were purchased (Pel-Freez Biologicals, Rogers, Ak.) and prepared using the same procedures as for the human glands.
as §1, §2

Residues, ends and D or L forms follow the SMILES beside them. Bounds are passed on as bounds.

For orientation: EC50 means the midpoint of the concentration-response curve.

Chain of FRTL5 cells (P21463 22-764): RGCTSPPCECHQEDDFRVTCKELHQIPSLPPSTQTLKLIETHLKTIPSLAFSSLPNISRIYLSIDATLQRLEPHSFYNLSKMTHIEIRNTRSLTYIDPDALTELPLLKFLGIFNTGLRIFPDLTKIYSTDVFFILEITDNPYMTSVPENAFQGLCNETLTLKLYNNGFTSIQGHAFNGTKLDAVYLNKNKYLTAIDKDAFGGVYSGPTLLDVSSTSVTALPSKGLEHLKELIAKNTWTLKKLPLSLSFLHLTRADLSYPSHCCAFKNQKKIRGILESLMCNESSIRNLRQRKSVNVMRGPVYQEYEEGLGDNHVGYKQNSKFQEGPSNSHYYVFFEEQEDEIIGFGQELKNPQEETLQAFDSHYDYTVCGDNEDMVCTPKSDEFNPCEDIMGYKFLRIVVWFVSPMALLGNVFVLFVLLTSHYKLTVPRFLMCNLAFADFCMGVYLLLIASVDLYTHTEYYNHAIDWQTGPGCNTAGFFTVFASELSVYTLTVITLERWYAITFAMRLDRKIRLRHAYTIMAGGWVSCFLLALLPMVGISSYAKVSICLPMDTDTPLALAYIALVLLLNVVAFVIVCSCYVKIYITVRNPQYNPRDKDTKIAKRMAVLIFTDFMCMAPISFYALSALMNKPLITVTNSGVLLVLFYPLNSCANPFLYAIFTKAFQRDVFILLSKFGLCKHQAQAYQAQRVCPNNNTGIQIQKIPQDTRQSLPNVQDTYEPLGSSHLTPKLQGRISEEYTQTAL

For `CC(C)C[C@H](NC(=O)[C@H](C)NC(=O)[C@@H](NC(=O)[C@@H]1CCCN1C(=O)[C@H](Cc1ccc(O)cc1)NC(=O)[C@H](CO)NC(=O)[C@H](Cc1ccccc1)NC(=O)[C@H](Cc1ccc(O)cc1)NC(=O)[C@@H]1CCCN1C(=O)[C@H](C)NC(=O)[C@@H](N)C(C)C)C(C)C)C(=O)N[C@@H](CO)C(=O)N[C@@H](CS)C(=O)N[C@@H](CCCCN)C(=O)N[C@@H](CS)C(N)=O` [β71-85] (H-VAPYFSYPVALSCKC-NH2; N-terminus assumed), the “Serum samples in which TSab-stimulated cAMP was significantly inhibited (p<0.05) / samples tested” value on FRTL5 cells was 1/5. Moreover, the results for the “Inhibition of TSab-stimulated cAMP generation (in words)” value on FRTL5 cells and on FRTL5 cells (listed as 71-85) were “significant inhibition only at the highest concentration” and “effective only at the highest dose”, respectively. Moreover, in test [1] (human thyroid membrane RRA), the “Inhibition of TSH binding to human thyroid membrane (in words)” value is reported as “inhibit binding of TSH to human thyroid membrane”.
Consider `CC(C)C[C@H](NC(=O)[C@H](C)NC(=O)[C@H](Cc1ccc(O)cc1)NC(=O)[C@H](CCCCN)NC(=O)[C@@H]1CCCN1C(=O)[C@H](CC(C)C)NC(=O)[C@@H](N)Cc1ccccc1)C(=O)N[C@@H](CO)C(=O)N[C@@H](CCC(N)=O)C(=O)N[C@@H](CC(=O)O)C(=O)N[C@H](C(=O)N[C@@H](CS)C(=O)N[C@H](C(=O)N[C@@H](Cc1ccc(O)cc1)C(=O)N[C@@H](CCCNC(=N)N)C(N)=O)[C@@H](C)O)C(C)C` [β41-55] (H-FLPKYALSQDVCTYR-NH2), for which the concentration giving a half-maximal response (EC50) in test [1] stood at 242 ± 58 µM; in test [2], 216 ± 18 µM.
Turning to `CC[C@H](C)[C@H](NC(=O)[C@H](C)NC(=O)[C@H](CCC(=O)O)NC(=O)[C@H](Cc1c[nH]cn1)NC(=O)[C@@H](NC(=O)[C@H](CS)NC(=O)[C@H](CC(=O)O)NC(=O)[C@H](CO)NC(=O)[C@H](Cc1ccc(O)cc1)NC(=O)[C@@H](N)CC(=O)O)[C@@H](C)CC)C(=O)N[C@@H](CCCCN)C(=O)N[C@H](C(=O)N[C@@H](CC(N)=O)C(=O)N[C@@H](Cc1ccc(O)cc1)C(=O)N[C@@H](CS)C(N)=O)[C@@H](C)O` [β91-105] (H-DYSDCIHEAIKTNYC-NH2; N-terminus assumed), on FRTL5 cells, the “Serum samples in which TSab-stimulated cAMP was significantly inhibited (p<0.05) / samples tested” value is recorded as 1/12 and the “Inhibition of TSab-stimulated cAMP generation (in words)” value was “did not inhibit TSab activity”.
Regarding `CC[C@H](C)[C@H](NC(=O)[C@H](CCC(=O)O)NC(=O)[C@@H](NC(=O)[C@@H](N)[C@@H](C)O)C(C)C)C(=O)N1CCC[C@H]1C(=O)NCC(=O)N[C@@H](CS)C(=O)N1CCC[C@H]1C(=O)N[C@@H](CC(C)C)C(=O)N[C@@H](Cc1c[nH]cn1)C(=O)N[C@H](C(=O)N[C@@H](C)C(=O)N1CCC[C@H]1C(=O)N[C@@H](Cc1ccc(O)cc1)C(=O)N[C@@H](Cc1ccccc1)C(N)=O)C(C)C` [β61-75] (H-TVEIPGCPLHVAPYF-NH2), the half-maximal effective concentration (EC50) in test [1] and in test [2] was > 1000 µM in each case.
As to `CC[C@H](C)[C@H](NC(=O)[C@H](Cc1ccccc1)NC(=O)[C@H](CC(=O)O)NC(=O)[C@H](CCCNC(=N)N)NC(=O)[C@H](Cc1ccc(O)cc1)NC(=O)[C@@H](NC(=O)[C@H](CS)NC(=O)[C@@H](N)C(C)C)[C@@H](C)O)C(=O)N[C@@H](Cc1ccc(O)cc1)C(=O)N[C@@H](CCCNC(=N)N)C(=O)N[C@H](C(=O)N[C@H](C(=O)N[C@@H](CCC(=O)O)C(=O)N[C@H](C(=O)N1CCC[C@H]1C(N)=O)[C@@H](C)CC)C(C)C)[C@@H](C)O` [β51-65] (H-VCTYRDFIYRTVEIP-NH2), the concentration for a half-maximal effect (EC50) in test [1] and in test [2] was > 1000 µM throughout.
On to `CC[C@H](C)[C@H](NC(=O)[C@@H](N)[C@@H](C)O)C(=O)N[C@@H](CC(N)=O)C(=O)N[C@H](C(=O)N[C@H](C(=O)N[C@H](C(=O)N[C@@H](CS)C(=O)N[C@@H](C)C(=O)NCC(=O)N[C@@H](Cc1ccc(O)cc1)C(=O)N[C@@H](CS)C(=O)N[C@@H](CCSC)C(=O)N[C@H](C(=O)N[C@@H](CCCNC(=N)N)C(=O)N[C@@H](CC(=O)O)C(N)=O)[C@@H](C)O)[C@@H](C)CC)[C@@H](C)O)[C@@H](C)O` [β21-35] (H-TINTTICAGYCMTRD-NH2), for which the EC50 in test [1] and in test [2] was > 1000 µM each time.

Source of the values: patent US5196513A, “Synthetic peptides derived from the beta-subunit of human thyroid stimulating hormone” (Mayo Foundation for Medical Education and Research, priority 1991, dated 1993).
